Measured values from patent publication US8613933B2, “Brachyury polypeptides and methods for use” (The United States of America, as represented by the …, priority 2007, dated 2013).
Peptide text beside a SMILES is read from it.

Assays:
[1] = tested on: T2 cells; format: cell-based, human
Method: (§1) Target cells were labeled with 50 μCi of ^111Indium-labeled oxyquinoline (Amersham Health, Silver Spring, Md.) for 15 minutes at room temperature. Target cells in medium containing 10% human AB serum were plated at 3×10^3 cells per well, in 96-well rounded-bottom culture plates. Labeled C1R-A2 or T2 cells were incubated with peptides at the indicated concentrations for 60 minutes at 37° C. in 5% CO2 before the addition of effector cells. No peptide was added when carcinoma cells or CD19+ B cells were used as targets. CD8+ T cells negatively isolated from T-cell cultures were used as effector cells, at various effector-to-target (E:T) cell ratios. […] Supernatants were harvested and the ^111In released was measured by gamma counting. Spontaneous release was determined by incubating the target cells with medium alone, and complete lysis by incubating the target cells with 2.5% Triton X-100. All determinations were performed in triplicate, and standard deviations were calculated. Specific lysis was calculated as follows: specific lysis (%)=[(observed release-spontaneous release)/(complete release-spontaneous release)]×100. […] Cytotoxic lysis of normal B lymphocytes was also analyzed since low expression of Brachyury was detectable in CD19+ cells isolated from various healthy donors.

[2] = tested on: normal donor CD19+ B cells; format: cell-based, human
Method: as §1

[3] = target: T1, HLA-A0201 molecules (Homo sapiens, UniProt P04439, D140Y/D185E/D98H/E176V/E277Q/G131W/G231S/I119V/I121R/I166T/I218V/L300P/L318F/N151K/N90K/P208A/P217A/Q86G/Q94H/R138H/R169H/T345S); assay: HLA-A2 binding assay: HLA-A02 surface expression on T2 cells by flow cytometry; details: 25 μM peptide, compared to positive and negative control peptides
T1 construct: the T2 (HLA-A2+) transport-deletion mutant cell line; endogenous in cells; host or cells: T2 (HLA-A2+) TAP-deficient cells
Method: Binding of Brachyury-specific peptides T-p1, T-p2, T-p3, and T-p4 (SEQ ID NOs: 1-4) to HLA-A0201 molecules was evaluated by flow cytometry analysis of HLA-A02 surface expression on T2 cells. T2 cells (1×10^6) in serum-free Iscove's modified Dulbecco's medium were incubated in the presence of various concentrations of each peptide, in 24-well culture plates at 37° C. with 5% CO2. After 18 hours in culture, T2 cells were harvested, washed with 1× phosphate buffered saline (PBS) (Invitrogen) and stained with 20 μl of a FITC-conjugated anti-HLA-A02-specific monoclonal antibody (MAb) (One Lambda, Inc., Canoga Park, Calif.). A FITC-conjugated IgG2a MAb (BD Biosciences, San Jose, Calif.) was used as an isotype control. […] Results were expressed as mean fluorescence intensity (MFI) collected on a log scale. […] Assuming first order kinetics, the log2 of MFI/MFI0 (MFI is the fluorescence at each time point and MFI0 the initial fluorescence at time 0) was plotted against time (minutes). The decay rate constant was calculated as the slope of the linear regression for each curve and the half-life of each peptide-MHC complex was calculated as […].
In silico-predicted epitopes were then assessed for binding to the MHC molecules in a cell-based assay. […]

[4] = tested on: CD8+ T cells; assay: IFN-γ ELISA of peptide-induced CD8+ T cells stimulated with peptide-pulsed autologous DCs; format: cell-based, human; details: healthy donor, DCs pulsed with 25 μM peptide, three IVS, 24 hours stimulation
Description: To generate Brachyury-specific cytotoxic T cells (CTLs), peptide-pulsed irradiated (30 Gy) DCs were used as antigen presenting cells (APCs) with autologous, non-adherent cells used as effector cells at an effector-to-APC ratio of 10:1. Cultures were maintained for three initial days in medium containing 10% human AB serum, and four additional days in the same medium supplemented with 20 U/ml of recombinant human IL-2. After a seven-day culture period, designated as an in vitro stimulation (IVS) cycle, cells were re-stimulated as described above.
After three IVS cycles, CD8+ T cells that were negatively isolated by using a CD8+ isolation kit (Miltenyi Biotec, Auburn, Calif.) were stimulated for 24 hours in the presence of peptide-pulsed autologous DCs. Culture supernatants were analyzed for the presence of IFN-γ by using an enzyme linked immunosorbant assay (ELISA) kit (Biosource International Inc., Camarillo, Calif.). Results were expressed in pg/ml.
Irradiated DCs pulsed with 25 μM of each peptide were used to stimulate autologous T cells from a healthy donor's PBMCs. […] Cytotoxic lysis of normal B lymphocytes was also analyzed since low expression of Brachyury was detectable in CD19+ cells isolated from various healthy donors.

Binding to HLA-A02 molecules (cell surface MHC stabilization, MFI) [3]	Compound	Lowest peptide concentration showing cytotoxic responses of T-p2 CTLs [1] [nM]	Cytotoxic lysis of normal B lymphocytes [2]	Induction of antigen-specific CTLs releasing IFN-γ upon stimulation with the specific peptide [4]
–	CC(C)C[C@H](NC(=O)[C@@H](NC(=O)[C@H](CO)NC(=O)[C@@H](NC(=O)CNC(=O)[C@@H]1CCCN1C(=O)[C@H](CC(C)C)NC(=O)[C@H](CC(C)C)NC(=O)[C@@H](N)Cc1c[nH]c2ccccc12)[C@@H](C)O)[C@@H](C)O)C(=O)O [T-p2, WLLPGTSTL] (H-WLLPGTSTL-OH; N-terminus and C-terminus assumed)	1	No lysis was observed	–
highest binding to T2 cells	AMYSFLLDFV (listed as Homo sapiens) [T-p4]	–	–	–
highest binding to T2 cells	RLIASWTPV (listed as Homo sapiens) [T-p3]	–	–	induced antigen-specific CTLs able to release IFN-γ
